Earlier results as cited in article PMC9329312, “Decoding kinase-adverse event associations for small molecule kinase inhibitors” (Nature Communications, 2022).
Where two headings read alike, the source gives them in different places.

Conditions: ref FAERS

CCOc1cc2ncc(C#N)c(Nc3ccc(OCc4ccccn4)c(Cl)c3)c2cc1NC(=O)/C=C/CN(C)C [neratinib]
Pyrexia, % of Cases: 1.4%
Quality of life decreased, % of Cases: 0.075%
Radiation injury, % of Cases: 0.075%
Rash erythematous, % of Cases: 0.3%
Rash macular, % of Cases: 0.075%
Rash papular, % of Cases: 0.075%
Rash pruritic, % of Cases: 0.3%
Rash pustular, % of Cases: 0.225%
Rash vesicular, % of Cases: 0.075%
Rash, % of Cases: 5.0%
Raynaud's phenomenon, % of Cases: 0.075%
Recall phenomenon, % of Cases: 0.075%
Rectal haemorrhage, % of Cases: 0.5%
Recurrent cancer, % of Cases: 0.075%
Red blood cell count decreased, % of Cases: 0.225%
Red blood cell sedimentation rate increased, % of Cases: 0.075%
Reflux laryngitis, % of Cases: 0.15%
Refraction disorder, % of Cases: 0.075%
Renal disorder, % of Cases: 0.45%
Renal failure, % of Cases: 0.6%
Renal function test abnormal, % of Cases: 0.15%
Renal impairment, % of Cases: 0.8%
Renal mass, % of Cases: 0.075%
Respiratory arrest, % of Cases: 0.075%
Respiratory failure, % of Cases: 0.15%
Restless legs syndrome, % of Cases: 0.075%
Retching, % of Cases: 0.3%
Retinal artery occlusion, % of Cases: 0.075%
Retinal tear, % of Cases: 0.075%
Rhinorrhoea, % of Cases: 0.75%
Road traffic accident, % of Cases: 0.075%
Rubber sensitivity, % of Cases: 0.075%
Saliva altered, % of Cases: 0.075%
Salivary gland cancer, % of Cases: 0.15%
Salpingectomy, % of Cases: 0.075%
Salpingo-oophorectomy bilateral, % of Cases: 0.075%
Scab, % of Cases: 0.075%
Seasonal allergy, % of Cases: 0.075%
Seizure, % of Cases: 0.225%
Sensation of foreign body, % of Cases: 0.15%
Seroma, % of Cases: 0.075%
Sinus disorder, % of Cases: 0.075%
Sinus headache, % of Cases: 0.075%
Sinus tachycardia, % of Cases: 0.075%
Sinusitis, % of Cases: 0.15%
Sjogren's syndrome, % of Cases: 0.075%
Skin atrophy, % of Cases: 0.075%
Skin burning sensation, % of Cases: 0.075%
Skin discolouration, % of Cases: 0.225%
Skin disorder, % of Cases: 0.075%
Skin erosion, % of Cases: 0.075%
Skin exfoliation, % of Cases: 0.8%
Skin fissures, % of Cases: 0.9%
Skin haemorrhage, % of Cases: 0.075%
Skin irritation, % of Cases: 0.075%
Skin odour abnormal, % of Cases: 0.075%
Skin reaction, % of Cases: 0.075%
Skin ulcer, % of Cases: 0.075%
Sleep disorder, % of Cases: 0.15%
Slow speech, % of Cases: 0.075%
Sluggishness, % of Cases: 0.075%
Small intestine adenocarcinoma, % of Cases: 0.075%
Sneezing, % of Cases: 0.225%
Snoring, % of Cases: 0.075%
Somnolence, % of Cases: 1.5%
Spinal pain, % of Cases: 0.075%
Sputum retention, % of Cases: 0.075%
Staphylococcal infection, % of Cases: 0.075%
Stomatitis, % of Cases: 2.0%
Stress fracture, % of Cases: 0.075%
Stress, % of Cases: 0.3%
Subclavian vein thrombosis, % of Cases: 0.075%
Sunburn, % of Cases: 0.075%
Surgery, % of Cases: 0.6%
Swelling face, % of Cases: 0.225%
Swelling, % of Cases: 0.15%
Swollen tongue, % of Cases: 0.15%
Syncope, % of Cases: 0.15%
Tachycardia, % of Cases: 0.225%
Taste disorder, % of Cases: 1.2%
Temporomandibular joint syndrome, % of Cases: 0.075%
Tenderness, % of Cases: 0.075%
Tension headache, % of Cases: 0.075%
Therapeutic product ineffective for unapproved indication, % of Cases: 0.075%
Therapy cessation, % of Cases: 0.375%
Therapy change, % of Cases: 0.225%
Therapy interrupted, % of Cases: 0.15%
Thirst, % of Cases: 0.375%
Throat irritation, % of Cases: 0.075%
Throat tightness, % of Cases: 0.075%
Thrombocytopenia, % of Cases: 0.075%
Thrombosis, % of Cases: 0.225%
Thyroid cancer, % of Cases: 0.075%
Thyroid mass, % of Cases: 0.075%
Tongue discolouration, % of Cases: 0.075%
Tongue discomfort, % of Cases: 0.075%
Tongue erythema, % of Cases: 0.15%
Tooth extraction, % of Cases: 0.075%
Tooth fracture, % of Cases: 0.075%
Tooth injury, % of Cases: 0.075%
Toothache, % of Cases: 0.15%
Toxicity to various agents, % of Cases: 0.075%
Tracheal disorder, % of Cases: 0.075%
Transaminases increased, % of Cases: 0.075%
Transient ischaemic attack, % of Cases: 0.075%
Transitional cell carcinoma metastatic, % of Cases: 0.075%
Treatment noncompliance, % of Cases: 0.075%
Tremor, % of Cases: 0.375%
Trichorrhexis, % of Cases: 0.075%
Tumour flare, % of Cases: 0.075%
Tumour marker increased, % of Cases: 0.075%
Tumour pain, % of Cases: 0.075%
Tumour ulceration, % of Cases: 0.075%
Underdose, % of Cases: 2.6%
Upper limb fracture, % of Cases: 0.075%
Upper respiratory tract infection, % of Cases: 0.375%
Upper-airway cough syndrome, % of Cases: 0.075%
Urinary retention, % of Cases: 0.075%
Urinary tract discomfort, % of Cases: 0.075%
Urinary tract infection, % of Cases: 2.1%
Urine analysis abnormal, % of Cases: 0.075%
Urine odour abnormal, % of Cases: 0.075%
Urticaria, % of Cases: 0.375%
Uterine cancer, % of Cases: 0.075%
Uterine leiomyoma, % of Cases: 0.075%
Vaginal discharge, % of Cases: 0.075%
Vaginal haemorrhage, % of Cases: 0.225%
Venous pressure jugular increased, % of Cases: 0.075%
Vertigo positional, % of Cases: 0.075%
Vertigo, % of Cases: 0.075%
Viral infection, % of Cases: 0.15%
Vision blurred, % of Cases: 0.375%
Visual impairment, % of Cases: 0.225%
Vitamin D decreased, % of Cases: 0.075%
Vitiligo, % of Cases: 0.075%
Vitreous floaters, % of Cases: 0.075%
Volume blood decreased, % of Cases: 0.075%
Vomiting projectile, % of Cases: 0.075%
Vomiting, % of Cases: 13.8%
Vulvovaginal burning sensation, % of Cases: 0.075%
Vulvovaginal dryness, % of Cases: 0.075%
Vulvovaginal pain, % of Cases: 0.075%
Vulvovaginal pruritus, % of Cases: 0.15%
Weight decreased, % of Cases: 4.9%
Weight fluctuation, % of Cases: 0.075%
Weight increased, % of Cases: 0.3%
White blood cell count decreased, % of Cases: 0.7%
White blood cell count increased, % of Cases: 0.15%
Wound haemorrhage, % of Cases: 0.075%
Wound, % of Cases: 0.075%
Wrist fracture, % of Cases: 0.075%
Wrong technique in product usage process, % of Cases: 0.075%
Xeroderma, % of Cases: 0.075%
Abdominal discomfort, % of Cases (listed as Neratinib): 4.80%
Abdominal pain upper, % of Cases (listed as Neratinib): 6.00%
Abdominal pain, % of Cases (listed as Neratinib): 6.20%
Constipation, % of Cases (listed as Neratinib): 15.50%
Death, % of Cases (listed as Neratinib): 9.60%
Decreased appetite, % of Cases (listed as Neratinib): 11.90%
Dehydration, % of Cases (listed as Neratinib): 6.60%
Diarrhoea, % of Cases (listed as Neratinib): 61.80%
Dizziness, % of Cases (listed as Neratinib): 4.60%
Dyspepsia, % of Cases (listed as Neratinib): 4.40%
Fatigue, % of Cases (listed as Neratinib): 25.20%
Headache, % of Cases (listed as Neratinib): 5.40%
Hospitalisation, % of Cases (listed as Neratinib): 5.30%
Muscle spasms, % of Cases (listed as Neratinib): 4.20%
Nausea, % of Cases (listed as Neratinib): 29.70%
Off label use, % of Cases (listed as Neratinib): 11.60%
Product dose omission issue, % of Cases (listed as Neratinib): 7.80%
Rash, % of Cases (listed as Neratinib): 5.00%
Vomiting, % of Cases (listed as Neratinib): 13.80%
Weight decreased, % of Cases (listed as Neratinib): 4.90%
